pEC50: −log10 of the molar value. Active and inactive are the calls of the source. No cut-off for these calls is given here.
Experiments:
[1] = target: T1, von Hippel-Lindau disease tumor suppressor/Vascular endothelial growth factor receptor 2 (Homo sapiens, UniProt P35968+P40337); experiment: PROTAC activity at VHL/VEGFR2 in human HGC-27 cells assessed as induction of VEGFR2 degradation at 1 uM measured after 36 hrs by Western blot analysis relative to control; format: cell-based
Target sequence in this assay (P35968 20-1356 limits assumed): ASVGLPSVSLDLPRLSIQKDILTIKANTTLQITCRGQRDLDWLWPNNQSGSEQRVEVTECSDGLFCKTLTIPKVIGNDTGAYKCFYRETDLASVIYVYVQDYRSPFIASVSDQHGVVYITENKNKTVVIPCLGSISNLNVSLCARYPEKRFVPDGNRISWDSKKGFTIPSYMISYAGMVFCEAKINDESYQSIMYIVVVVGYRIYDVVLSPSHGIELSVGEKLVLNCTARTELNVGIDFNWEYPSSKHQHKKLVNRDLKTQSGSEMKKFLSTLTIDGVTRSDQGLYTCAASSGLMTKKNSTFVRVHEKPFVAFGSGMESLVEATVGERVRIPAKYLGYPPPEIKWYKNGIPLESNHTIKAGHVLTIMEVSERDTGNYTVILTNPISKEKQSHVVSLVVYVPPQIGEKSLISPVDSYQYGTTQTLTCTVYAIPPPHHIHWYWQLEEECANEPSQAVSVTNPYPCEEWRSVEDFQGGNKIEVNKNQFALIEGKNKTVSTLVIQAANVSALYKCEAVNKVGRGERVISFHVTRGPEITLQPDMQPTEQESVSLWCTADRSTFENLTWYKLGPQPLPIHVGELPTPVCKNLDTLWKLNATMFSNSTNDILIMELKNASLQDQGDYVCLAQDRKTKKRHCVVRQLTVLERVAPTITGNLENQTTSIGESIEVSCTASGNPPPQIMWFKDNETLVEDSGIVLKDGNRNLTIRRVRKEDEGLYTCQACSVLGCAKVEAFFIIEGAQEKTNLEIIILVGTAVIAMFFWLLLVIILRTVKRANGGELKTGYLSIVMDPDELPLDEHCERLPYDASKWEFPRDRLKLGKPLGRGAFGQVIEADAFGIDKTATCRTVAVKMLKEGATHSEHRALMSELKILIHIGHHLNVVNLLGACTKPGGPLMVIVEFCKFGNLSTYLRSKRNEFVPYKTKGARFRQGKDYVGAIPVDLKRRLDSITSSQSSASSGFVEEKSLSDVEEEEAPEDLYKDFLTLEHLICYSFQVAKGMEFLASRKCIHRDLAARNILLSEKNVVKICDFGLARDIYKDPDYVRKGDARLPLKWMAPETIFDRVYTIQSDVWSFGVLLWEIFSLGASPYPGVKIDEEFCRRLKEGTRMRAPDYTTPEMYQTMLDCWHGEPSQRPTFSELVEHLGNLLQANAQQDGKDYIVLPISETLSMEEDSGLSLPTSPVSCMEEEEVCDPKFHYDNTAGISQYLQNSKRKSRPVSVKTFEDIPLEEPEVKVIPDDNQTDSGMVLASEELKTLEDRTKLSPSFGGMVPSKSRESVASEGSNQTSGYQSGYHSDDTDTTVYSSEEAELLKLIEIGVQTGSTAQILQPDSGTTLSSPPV
Target sequence in this assay (P40337 whole entry partner): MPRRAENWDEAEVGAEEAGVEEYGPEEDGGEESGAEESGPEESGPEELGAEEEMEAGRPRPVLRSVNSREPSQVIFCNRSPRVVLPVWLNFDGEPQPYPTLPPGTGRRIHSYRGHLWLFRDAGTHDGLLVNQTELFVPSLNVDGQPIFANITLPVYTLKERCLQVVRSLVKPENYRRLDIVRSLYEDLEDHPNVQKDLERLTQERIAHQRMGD

HGC-27 [2] = experiment: Induction of apoptosis in human HGC-27 cells assessed as late apoptotic cells at 1 uM incubated for 24 hrs by Annexin V-FITC/PI staining based analysis (reference value: 3%); format: functional
[3] = Cytotoxicity against HUVEC cells assessed as inhibition of cell growth incubated for 72 hrs by MTT assay; format: toxicity, cell-based; settings: human
[4] = Effect on VEGFR2 mRNA expression in human HGC-27 cells at 0.033 uM incubated for 24 hrs by qPCR analysis relative to control; format: functional
HGC-27 [5] = experiment: Induction of apoptosis in human HGC-27 cells assessed as early apoptotic cells at 3.3 uM incubated for 24 hrs by Annexin V-FITC/PI staining based analysis (reference value: 1.7 %); format: functional
HGC-27 [6] = experiment: Antiinvasive activity in human HGC-27 cells assessed as reduction in number of invasive cells at 0.1 uM incubated for 24 hrs by transwell invasion assay (reference value: 118); format: functional
[7] = Effect on VEGFR2 mRNA expression in human HGC-27 cells at 1 uM incubated for 24 hrs by qPCR analysis relative to control; format: functional
HGC-27 [8] = experiment: Induction of apoptosis in human HGC-27 cells assessed as early apoptotic cells at 0.033 uM incubated for 24 hrs by Annexin V-FITC/PI staining based analysis (reference value: 1.7 %); format: functional
HGC-27 [9] = experiment: Induction of apoptosis in human HGC-27 cells assessed as viable cells at 0.033 uM incubated for 24 hrs by Annexin V-FITC/PI staining based analysis (reference value: 95.3%); format: functional; settings: read-out: Activity
HGC-27 [10] = experiment: Antiinvasive activity in human HGC-27 cells assessed as reduction in number of invasive cells at 1 uM incubated for 24 hrs by transwell invasion assay (reference value: 118); format: functional
[11] = target: T1, von Hippel-Lindau disease tumor suppressor/Vascular endothelial growth factor receptor 2; experiment: PROTAC activity at VHL/VEGFR2 in HUVEC cells assessed as reduction in VEGFR2 protein level incubated for 24 hrs by Western blot analysis; format: cell-based
[12] = target: Vascular endothelial growth factor receptor 2 (Homo sapiens, UniProt P35968); experiment: Inhibition of VEGFR2 (unknown origin) at 1 uM by caliper mobility shift assay relative to control
HGC-27 [13] = experiment: Induction of cell cycle arrest in human HGC-27 cells assessed as G2/M phase cells at 0.33 uM incubated for 24 hrs by PI staining based flow cytometric analysis (reference value: 13.3%); format: functional
HGC-27 [14] = experiment: Induction of apoptosis in human HGC-27 cells assessed as early apoptotic cells at 0.33 uM incubated for 24 hrs by Annexin V-FITC/PI staining based analysis (reference value: 1.7 %); format: functional
[15] = target: T1, von Hippel-Lindau disease tumor suppressor/Vascular endothelial growth factor receptor 2; experiment: PROTAC activity at VHL/VEGFR2 in human HGC-27 cells assessed as […] at 1 uM measured upto 24 hrs in the presence of cycloheximide by Western blot analysis; format: cell-based
Target sequence in this assay (P35968 20-1356 limits assumed): as the sequence (P35968 20-1356 limits assumed) above
Target sequence in this assay (P40337 whole entry partner): as the sequence (P40337 whole entry partner) above

HGC-27 [16] = experiment: Inhibition of cell migration in human HGC-27 cells assessed as suppression of cell migration at 3.3 uM incubated for 24 hrs by wound healing assay relative to control; format: functional
[17] = Effect on VEGFR2 mRNA expression in human HGC-27 cells at 0.33 uM incubated for 24 hrs by qPCR analysis relative to control; format: functional
HGC-27 [18] = experiment: Induction of apoptosis in human HGC-27 cells assessed as late apoptotic cells at 0.1 uM incubated for 24 hrs by Annexin V-FITC/PI staining based analysis (reference value: 3%); format: functional
HGC-27 [19] = experiment: Inhibition of cell migration in human HGC-27 cells assessed as suppression of cell migration at 1 uM incubated for 6 hrs by wound healing assay relative to control; format: functional
[20] = target: T1, von Hippel-Lindau disease tumor suppressor/Vascular endothelial growth factor receptor 2; experiment: PROTAC activity at VHL/VEGFR2 in human HGC-27 cells assessed as residual activity by measuring VEGFR2 expression level at 1 uM incubated for 24 hrs followed by compound washout and measured after 36 hrs by Western blot analysis relative to control; format: cell-based
Target sequence in this assay (P35968 20-1356 limits assumed): as the sequence (P35968 20-1356 limits assumed) above
Target sequence in this assay (P40337 whole entry partner): as the sequence (P40337 whole entry partner) above

[21] = target: T1, von Hippel-Lindau disease tumor suppressor/Vascular endothelial growth factor receptor 2; experiment: PROTAC activity at VHL/VEGFR2 in human HGC-27 cells assessed as induction of VEGFR2 degradation at 1 uM measured after 12 hrs by Western blot analysis relative to control; format: cell-based
Target sequence in this assay (P35968 20-1356 limits assumed): as the sequence (P35968 20-1356 limits assumed) above
Target sequence in this assay (P40337 whole entry partner): as the sequence (P40337 whole entry partner) above

[22] = target: T1, von Hippel-Lindau disease tumor suppressor/Vascular endothelial growth factor receptor 2; experiment: PROTAC activity at VHL/VEGFR2 in human HGC-27 cells assessed as induction of VEGRF2 protein degradation at 1 uM preincubated with MLN4924 for 2 hrs followed by compound addition and measured after 24 hrs by Western blot analysis; format: cell-based
Target sequence in this assay (P35968 20-1356 limits assumed): as the sequence (P35968 20-1356 limits assumed) above
Target sequence in this assay (P40337 whole entry partner): as the sequence (P40337 whole entry partner) above

HGC-27 [23] = experiment: Induction of cell cycle arrest in human HGC-27 cells assessed as S phase cells at 0.33 uM incubated for 24 hrs by PI staining based flow cytometric analysis (reference value: 26.4%); format: functional
HGC-27 [24] = experiment: Induction of cell cycle arrest in human HGC-27 cells assessed as G2/M phase cells at 1 uM incubated for 24 hrs by PI staining based flow cytometric analysis (reference value: 13.3%); format: functional

Chain of Vascular endothelial growth factor receptor 2 (P35968 whole entry): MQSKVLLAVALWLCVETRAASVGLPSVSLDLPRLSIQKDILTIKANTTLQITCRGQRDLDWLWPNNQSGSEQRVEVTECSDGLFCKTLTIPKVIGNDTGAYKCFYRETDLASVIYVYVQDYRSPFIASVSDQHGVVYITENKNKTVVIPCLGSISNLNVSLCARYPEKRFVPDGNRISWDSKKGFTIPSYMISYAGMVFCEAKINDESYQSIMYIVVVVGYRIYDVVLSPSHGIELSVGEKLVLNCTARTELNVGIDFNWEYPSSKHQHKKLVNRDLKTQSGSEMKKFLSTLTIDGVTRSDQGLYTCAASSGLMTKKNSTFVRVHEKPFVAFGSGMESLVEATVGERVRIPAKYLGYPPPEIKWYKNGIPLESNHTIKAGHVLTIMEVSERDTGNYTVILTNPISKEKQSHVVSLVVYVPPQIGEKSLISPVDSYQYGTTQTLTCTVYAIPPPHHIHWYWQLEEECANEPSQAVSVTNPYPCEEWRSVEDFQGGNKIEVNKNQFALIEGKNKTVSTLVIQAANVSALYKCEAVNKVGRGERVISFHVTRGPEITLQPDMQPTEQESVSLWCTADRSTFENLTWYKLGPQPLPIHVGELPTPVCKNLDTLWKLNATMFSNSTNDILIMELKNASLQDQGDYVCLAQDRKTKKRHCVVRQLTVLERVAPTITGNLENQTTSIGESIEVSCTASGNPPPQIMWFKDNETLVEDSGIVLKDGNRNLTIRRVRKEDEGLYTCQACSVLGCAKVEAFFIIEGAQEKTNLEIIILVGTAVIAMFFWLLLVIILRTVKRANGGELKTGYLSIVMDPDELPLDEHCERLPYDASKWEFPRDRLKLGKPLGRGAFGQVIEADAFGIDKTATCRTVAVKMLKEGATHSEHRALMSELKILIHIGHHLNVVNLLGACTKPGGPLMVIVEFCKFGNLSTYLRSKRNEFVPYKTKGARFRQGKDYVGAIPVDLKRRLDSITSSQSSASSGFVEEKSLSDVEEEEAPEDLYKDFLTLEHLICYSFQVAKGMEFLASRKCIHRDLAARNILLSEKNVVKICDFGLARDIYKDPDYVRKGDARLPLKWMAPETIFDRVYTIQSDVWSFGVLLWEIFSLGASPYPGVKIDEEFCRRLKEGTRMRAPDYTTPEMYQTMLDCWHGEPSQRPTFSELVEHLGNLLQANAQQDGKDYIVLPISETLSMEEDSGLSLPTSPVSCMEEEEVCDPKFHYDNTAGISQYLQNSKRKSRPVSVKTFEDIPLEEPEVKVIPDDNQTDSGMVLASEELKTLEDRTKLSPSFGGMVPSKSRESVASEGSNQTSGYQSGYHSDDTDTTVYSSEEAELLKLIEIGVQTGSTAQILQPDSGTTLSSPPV

In the case of `Cc1ccc(NC(=O)Cn2cc(-c3ccc4c(NC(=O)c5ccc(NC(=O)CCCCCCCCC(=O)N[C@H](C(=O)N6C[C@H](O)C[C@H]6C(=O)NCc6ccc(-c7scnc7C)cc6)C(C)(C)C)cc5)n[nH]c4c3)cn2)cc1C(F)(F)F`, the Activity [1] was 60.6%, the Activity (HGC-27 [2]) was 14.2% and the IC50 at 72 h [3] was 7.07 µM. It also gave an Activity [4] of 99.3%, an Activity (HGC-27 [5]) of 15% and an Activity (HGC-27 [6]) of 100. The Activity [7] was 91.3%, the Activity (HGC-27 [8]) was 2% and the viability at 0.033 µM (HGC-27 [9]) was 93%. For the same molecule, the Activity (HGC-27 [10]) was 11, the Activity [11] was “Dose-Dependent Effect” and the pEC50 [11] was 6.29. For the same molecule, the inhibition [12] was 97.5%, the Activity (HGC-27 [13]) was 37.7% and the Activity (HGC-27 [14]) was 3.2%. The Activity [15] was “Active”, the inhibition at 3.3 µM (HGC-27 [16]) was 32.7% and the Activity [17] was 83%. The Activity (HGC-27 [18]) was 4.2%, the inhibition at 1 µM (HGC-27 [19]) was 11.7% and the Activity [20] was 131%. The Activity [21] was 33.3%, the Activity [22] was “inactive” and the Activity (HGC-27 [23]) was 23.4%. It also gave an Activity (HGC-27 [24]) of 45.9%.

— ChEMBL document CHEMBL5247592, “Discovery of novel VEGFR-2-PROTAC degraders based on the localization of lysine residues via recruiting VHL for the treatment of gastric cancer” (Eur J Med Chem, 2022)
